System: A II receptor
Experiment: Angiotensin II ligand-receptor binding assay (rabbit aortae membrane preparation / bovine adrenal cortex preparation)
Conditions: "at least IC50 <50 μM"; not stated which of the two binding assays (rabbit aortae, 125I-Sar1Ile8-A II; bovine adrenal cortex, 3H-A II); read-out: IC50 (50% displacement of specifically bound radiolabelled angiotensin II ligand)
Description: Angiotensin II (A II) is a powerful arterial vasoconstrictor, and it exerts its action by interacting with specific receptors present on cell membranes. The compounds described in the present invention act as competitive antagonists of A II at the receptors. In order to identify A II antagonists and determine their efficacy in vitro, the following two ligand-receptor binding assays were established.
Receptor binding assay using rabbit aortae membrane preparation
Three frozen rabbit aortae (obtained from Pel-Freeze Biologicals) were suspended in 5 mM Tris-0.25M Sucrose, pH 7.4 buffer (50 ml) homogenized, and then centifuged. The mixture was filtered through a cheesecloth and the supernatant was centrifuged for 30 minutes at 20,000 rpm at 4° C. The pellet thus obtained was resuspended in 30 ml of 50 mM Tris-5 mM MgCl2 buffer containing 0.2% Bovine Serum Albumin and 0.2 mg/ml Bacitration and the suspension was used for 100 assay tubes. Samples tested for screening were done in duplicate. To the membrane preparation (0.25 ml) there was added ^125 I-Sar^1 Ile^8 -angiotensin II [obtained from New England Nuclear] (10 ul; 20,000 cpm) with or without the test sample and the mixture was incubated at 37° C. for 90 minutes. The mixture was then diluted with ice-cold 50 mM Tris-0.9% NaCl, pH 7.4 (4 ml) and filtered through a glass fiber filter (GF/B Whatman 2.4" diameter). The filter was soaked in scintillation cocktail (10 ml) and counted for radioactivity using Packard 2660 Tricarb liquid scintillation counter. The inhibitory concentration (IC50) of potential A II antagonist which gives 50% displacement of the total specifically bound ^125 I-Sar^1 Ile^8 -angiotensin II was presented as a measure of the efficacy of such compounds as A II antagonists.
Receptor assay using Bovine adrenal cortex preparation
Bovine adrenal cortex was selected as the source of A II receptor. Weighed tissue (0.1 g is needed for 100 assay tubes) was suspended in Tris.HCl (50 mM), pH 7.7 buffer and homogenized. The homogenate was centrifuged at 20,000 rpm for 15 minutes. Supernatant was discarded and pellets resuspended in buffer [Na2 HPO4 (10 mM)-NaCl (120 mM)-disodium EDTA (5 mM) containing phenylmethane sulfonyl fluoride (PMSF)(0.1 mM)]. (For screening of compounds, generally duplicates of tubes are used). To the membrane preparation (0.5 ml) there was added 3H-angiotensin II ([…]) (10 ul) with or without the test sample and the mixture was incubated at 37° C. for 1 hour. The mixture was then diluted with Tris buffer (4 ml) and filtered through a glass fiber filter (GF/B Whatman 2.4" diameter). The filter was soaked in scintillation cocktail (10 ml) and counted for radioactivity using Packard 2660 Tricarb liquid scintillation counter. […]

Row | IC50 [µM] | SMILES
1 | < 50 | CCCCc1nc2sc(C(=O)OC)cc2n1Cc1ccc(-c2ccccc2-c2nnn[nH]2)cc1 [Example 6, 2-butyl-1-[(2'-{1H-tetrazol-5-yl}{1,1'-biphenyl}-4-yl)methyl]-1H-thieno[2,3-d]imidazole-5-carboxylic acid methyl ester]
2 | < 50 | CCCCc1nc2cscc2n1Cc1ccc(-c2ccccc2C(=O)O)cc1 [Example 1, 4'-[(2-butyl-1H-thieno[3,4-d]imidazol-1-yl)methyl][1,1'-biphenyl]-2-carboxylic acid]
3 | < 50 | CCCc1nc2c(c(C)nn2C)n1Cc1ccc(-c2ccccc2-c2nnn[nH]2)cc1 [Example 11, 1,4-Dihydro-1,3-dimethyl-5-propyl-4-[(2'-{1H-tetrazol-5-yl}{1,1'-biphenyl}-4-yl)methyl]imidazo[4,5-c]-pyrazole]
4 | < 50 | CCCCc1nc2cc(C(=O)OC)sc2n1Cc1ccc(-c2ccccc2C(=O)O)cc1 [Example 3, 2-butyl-3-[(2'-carboxy{1,1'-biphenyl}-4-yl)methyl]-3H-thieno[2,3-d]imidazole-5-carboxylic acid methyl ester]

Source: US5389660A, “Substituted imidazo-fused 5-membered ring heterocycles as angiotensin II antagonists” (Merck & Co., Inc., priority 1992, dated 1995)
